System: yeast genes (expressed mRNA)
Test: DNA chip measurement of expressed mRNA of yeast genes after culture with a toxic chemical substance
Type: cell-based, Saccharomyces cerevisiae S288C
How it was run: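 S. cerevisiae S288C grown at 25 °C in YPD, exposed in log phase for 2 h to a toxicant at growth-inhibiting, non-lethal concentration. Cy3/Cy5-labelled cDNA from poly(A) mRNA hybridized to whole-genome chip at 65 °C >12 h. Ratio to untreated control, ≥2 significant.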

## CN(C)C(=S)SSC(=S)N(C)C [(10), Tetramethylthiuram disulfide]
Yeast gene YFL010C, cultured two hours with substance
  The level of expressed mRNA in the presence of chemical substance/The level of expressed mRNA in the absence of chemical substance: 1.4
Yeast gene YFL024C, cultured two hours with substance
  The level of expressed mRNA in the presence of chemical substance/The level of expressed mRNA in the absence of chemical substance: 0.5
Yeast gene YFL032W, cultured two hours with substance
  The level of expressed mRNA in the presence of chemical substance/The level of expressed mRNA in the absence of chemical substance: 0.6
Yeast gene YFL056C
  The level of expressed mRNA in the presence of chemical substance/The level of expressed mRNA in the absence of chemical substance: 31.3
Yeast gene YFL056C, cultured for two hours with substance
  The level of expressed mRNA in the presence of chemical substance/The level of expressed mRNA in the absence of chemical substance: 31.3
Yeast gene YFL057C
  The level of expressed mRNA in the presence of chemical substance/The level of expressed mRNA in the absence of chemical substance: 46.1
Yeast gene YFL057C, cultured for two hours with substance
  The level of expressed mRNA in the presence of chemical substance/The level of expressed mRNA in the absence of chemical substance: 46.1
Yeast gene YGL037C, cultured two hours with substance
  The level of expressed mRNA in the presence of chemical substance/The level of expressed mRNA in the absence of chemical substance: 1.6
Yeast gene YGL046W, cultured two hours with substance
  The level of expressed mRNA in the presence of chemical substance/The level of expressed mRNA in the absence of chemical substance: 4.5
Yeast gene YGL047W, cultured two hours with substance
  The level of expressed mRNA in the presence of chemical substance/The level of expressed mRNA in the absence of chemical substance: 5.7
Yeast gene YGL053W, cultured two hours with substance
  The level of expressed mRNA in the presence of chemical substance/The level of expressed mRNA in the absence of chemical substance: 2.4
Yeast gene YGL121C, cultured two hours with substance
  The level of expressed mRNA in the presence of chemical substance/The level of expressed mRNA in the absence of chemical substance: 15.0
Yeast gene YGL136C, cultured two hours with substance
  The level of expressed mRNA in the presence of chemical substance/The level of expressed mRNA in the absence of chemical substance: 1.0
Yeast gene YGL184C
  The level of expressed mRNA in the presence of chemical substance/The level of expressed mRNA in the absence of chemical substance: 66.8
Yeast gene YGL193C, cultured two hours with substance
  The level of expressed mRNA in the presence of chemical substance/The level of expressed mRNA in the absence of chemical substance: 1.0
Yeast gene YGL199C, cultured two hours with substance
  The level of expressed mRNA in the presence of chemical substance/The level of expressed mRNA in the absence of chemical substance: 0.1
Yeast gene YGR101W, cultured two hours with substance
  The level of expressed mRNA in the presence of chemical substance/The level of expressed mRNA in the absence of chemical substance: 1.4
Yeast gene YGR110W, cultured two hours with substance
  The level of expressed mRNA in the presence of chemical substance/The level of expressed mRNA in the absence of chemical substance: 4.8
Yeast gene YGR130C, cultured two hours with substance
  The level of expressed mRNA in the presence of chemical substance/The level of expressed mRNA in the absence of chemical substance: 1.5
Yeast gene YGR142W, cultured two hours with substance
  The level of expressed mRNA in the presence of chemical substance/The level of expressed mRNA in the absence of chemical substance: 12.2
Yeast gene YGR154C, cultured two hours with substance
  The level of expressed mRNA in the presence of chemical substance/The level of expressed mRNA in the absence of chemical substance: 9.1
Yeast gene YGR213C
  The level of expressed mRNA in the presence of chemical substance/The level of expressed mRNA in the absence of chemical substance: 6.9
Yeast gene YGR221C, cultured two hours with substance
  The level of expressed mRNA in the presence of chemical substance/The level of expressed mRNA in the absence of chemical substance: 0.7
Yeast gene YHL040C (detoxification protein gene)
  The level of expressed mRNA in the presence of chemical substance/The level of expressed mRNA in the absence of chemical substance: 11.3
Yeast gene YHL040C (transport facilitation protein gene)
  The level of expressed mRNA in the presence of chemical substance/The level of expressed mRNA in the absence of chemical substance: 11.3
Yeast gene YHL047C (detoxification protein gene)
  The level of expressed mRNA in the presence of chemical substance/The level of expressed mRNA in the absence of chemical substance: 11.9
Yeast gene YHL047C (transport facilitation protein gene)
  The level of expressed mRNA in the presence of chemical substance/The level of expressed mRNA in the absence of chemical substance: 11.9
Yeast gene YHR029C, cultured two hours with substance
  The level of expressed mRNA in the presence of chemical substance/The level of expressed mRNA in the absence of chemical substance: 8.6
Yeast gene YHR071W
  The level of expressed mRNA in the presence of chemical substance/The level of expressed mRNA in the absence of chemical substance: 7.2
Yeast gene YHR116W, cultured two hours with substance
  The level of expressed mRNA in the presence of chemical substance/The level of expressed mRNA in the absence of chemical substance: 2.7
Yeast gene YHR138C, cultured two hours with substance
  The level of expressed mRNA in the presence of chemical substance/The level of expressed mRNA in the absence of chemical substance: 4.6
Yeast gene YHR139C
  The level of expressed mRNA in the presence of chemical substance/The level of expressed mRNA in the absence of chemical substance: 46.6
Yeast gene YHR199C, cultured two hours with substance
  The level of expressed mRNA in the presence of chemical substance/The level of expressed mRNA in the absence of chemical substance: 6.0
Yeast gene YIL023C, cultured two hours with substance
  The level of expressed mRNA in the presence of chemical substance/The level of expressed mRNA in the absence of chemical substance: 1.6
Yeast gene YIL024C, cultured two hours with substance
  The level of expressed mRNA in the presence of chemical substance/The level of expressed mRNA in the absence of chemical substance: 1.8
Yeast gene YIL041W, cultured two hours with substance
  The level of expressed mRNA in the presence of chemical substance/The level of expressed mRNA in the absence of chemical substance: 1.4
Yeast gene YIL087C, cultured two hours with substance
  The level of expressed mRNA in the presence of chemical substance/The level of expressed mRNA in the absence of chemical substance: 1.8
Yeast gene YIL102C, cultured two hours with the chemical substance
  The level of expressed mRNA in the presence of chemical substance/The level of expressed mRNA in the absence of chemical substance: 0.3
Yeast gene YIL117C, cultured two hours with substance
  The level of expressed mRNA in the presence of chemical substance/The level of expressed mRNA in the absence of chemical substance: 3.5
Yeast gene YIL167W
  The level of expressed mRNA in the presence of chemical substance/The level of expressed mRNA in the absence of chemical substance: 12.7
Yeast gene YIL168W
  The level of expressed mRNA in the presence of chemical substance/The level of expressed mRNA in the absence of chemical substance: 19.3
Yeast gene YIR038C (detoxification protein gene)
  The level of expressed mRNA in the presence of chemical substance/The level of expressed mRNA in the absence of chemical substance: 4.5
Yeast gene YJL020C, cultured two hours with substance
  The level of expressed mRNA in the presence of chemical substance/The level of expressed mRNA in the absence of chemical substance: 1.0
Yeast gene YJL057C, cultured two hours with substance
  The level of expressed mRNA in the presence of chemical substance/The level of expressed mRNA in the absence of chemical substance: 6.1
Yeast gene YJL066C, cultured two hours with substance
  The level of expressed mRNA in the presence of chemical substance/The level of expressed mRNA in the absence of chemical substance: 2.1
Yeast gene YJL082W, cultured two hours with substance
  The level of expressed mRNA in the presence of chemical substance/The level of expressed mRNA in the absence of chemical substance: 2.9
Yeast gene YJL100W, cultured two hours with the chemical substance
  The level of expressed mRNA in the presence of chemical substance/The level of expressed mRNA in the absence of chemical substance: 2.7
Yeast gene YJL108C, cultured two hours with substance
  The level of expressed mRNA in the presence of chemical substance/The level of expressed mRNA in the absence of chemical substance: 0.7
Yeast gene YJL149W, cultured two hours with substance
  The level of expressed mRNA in the presence of chemical substance/The level of expressed mRNA in the absence of chemical substance: 3.8
Yeast gene YJL151C, cultured two hours with substance
  The level of expressed mRNA in the presence of chemical substance/The level of expressed mRNA in the absence of chemical substance: 1.6

Reference: patent publication US20100041089A1, “IMPROVED METHOD FOR DETECTING CHEMICAL […]” (priority 2006, published 2010)
